This note sets out measurements from US9556160B2, “Guanidine compound” (Astellas Pharma Inc., priority 2011, dated 2017).

Molecules are shown by their SMILES. Counter-ions that a name gives are not always drawn.

For test [1], the target named is human VAP-1 enzyme (SSAO) (Homo sapiens (Human), UniProt Q16853). The test is described as follows: Inhibitory effect on human VAP-1 enzyme (SSAO) activity, radiochemistry-enzymatic assay with 14C-benzylamine. It is filed as biochemical. Conditions: CHO-expressed human VAP-1, 14C-benzylamine 1×10^−5 mol/L. The procedure:
(§1) After homogenizing CHO (Chinese Hamster Ovary) cells stably expressing a human VAP-1 enzyme (SSAO) in a 50 mM phosphate buffer containing 1% NP-40, an enzyme suspension was obtained by taking the supernatant obtained by centrifugation. The enzyme suspension was preincubated with the compound of the present invention in a 96-well microplate at room temperature for 30 minutes. Subsequently, the enzyme suspension was incubated with ^14C-benzylamine (a final concentration of 1×10^−5 mol/L) to a final volume of […] at 37° C. for 1 hour. The enzymatic reaction was stopped by the addition of 2 mol/L (50 pt) of citric acid.

The subject of test [2] is albuminuria in STZ-treated rats. Nature of the test: Effect on albuminuria in rats with diabetes mellitus (STZ). It is filed as in vivo, SD rats. The conditions noted are these: oral 0.3 mg/kg once daily, after 4 weeks; for amount of urinary albumin excretion: 24-hour urine. The procedure:
Seven-to eight-week SD rats (having weights up to 200 to 250 g during fasting) were used and fasted for 20 hours, and then intraperitoneally administered with 60 mg/ml/kg of streptozotocin (STZ) prepared with a 2 mmol/l citric acid buffer (pH 4.5). At the same time, the control rats were injected with the same amount of a 2 mmol/l citric acid buffer (pH 4.5).
The test substance was given daily for 4 weeks after the treatment with STZ. After 4 weeks of the treatment with the test substance, 24-hour urine collection was performed using metabolic cages.

In the next test the target is rat VAP-1 enzyme (SSAO) (Rattus norvegicus (Rat), UniProt O08590). The test is described as follows: Inhibitory effect on rat VAP-1 enzyme (SSAO) activity, radiochemistry-enzymatic assay with 14C-benzylamine. It is filed as biochemical. The conditions noted are these: CHO-expressed rat VAP-1, 14C-benzylamine 1×10^−5 mol/L. As to the method:
as §1, with “rat” for “human”, “μL)” for “pt)”, “acid. The oxidation products were extracted directly in a 200 μL toluene scintillator, and the radioactivity was measured with a scintillation spectrometer.” for “acid.”

The subject of test [3] is VAP-1 enzyme (SSAO) activity in rat plasma. The test is described as follows: Inhibitory effect on rat VAP-1 enzyme (SSAO) activity in rat plasma after oral administration. It is filed as in vivo, Wistar male rats. The conditions noted are these: rat plasma VAP-1 activity, oral 0.3 mg/kg; for Inhibition Ratio (%) 1 h: 1 h after administration; for Inhibition Ratio (%) 3 h: 3 h after administration; for Inhibition Ratio (%) 6 h: 6 h after administration; for Inhibition Ratio (%) 24 h: 24 h after administration. As to the method: Eight-week to twelve-week Wistar male rats were fasted for 20 hours, and orally administered with a test drug ([…]). Heparin blood collection from the tail vein was performed immediately before the administration, and at 1 h, 3 h, 6 h, 12 h, or 24 h after the administration. The resulting blood was subjected to centrifugation at 14000 rpm for 5 minutes to separate plasma, and the VAP-1 enzyme activity in the resulting plasma was measured by a radio-enzyme assay method.
For the radio-enzyme assay method, ^14C-benzylamine which is a synthetic substrate (10 μM) was reacted with the resulting plasma at 37° C., and the resulting metabolite was extracted with a mixture of toluene/ethyl acetate. The radioactivity was measured and taken as a VAP-1 enzyme activity in the plasma. The effect of the test drug was calculated from the inhibitory ratio (%) of the VAP-1 activity after the administration of the test drug relative to the VAP-1 activity in the plasma immediately before the administration.

rat VAP-1 enzyme (SSAO), sequence (O08590 whole entry): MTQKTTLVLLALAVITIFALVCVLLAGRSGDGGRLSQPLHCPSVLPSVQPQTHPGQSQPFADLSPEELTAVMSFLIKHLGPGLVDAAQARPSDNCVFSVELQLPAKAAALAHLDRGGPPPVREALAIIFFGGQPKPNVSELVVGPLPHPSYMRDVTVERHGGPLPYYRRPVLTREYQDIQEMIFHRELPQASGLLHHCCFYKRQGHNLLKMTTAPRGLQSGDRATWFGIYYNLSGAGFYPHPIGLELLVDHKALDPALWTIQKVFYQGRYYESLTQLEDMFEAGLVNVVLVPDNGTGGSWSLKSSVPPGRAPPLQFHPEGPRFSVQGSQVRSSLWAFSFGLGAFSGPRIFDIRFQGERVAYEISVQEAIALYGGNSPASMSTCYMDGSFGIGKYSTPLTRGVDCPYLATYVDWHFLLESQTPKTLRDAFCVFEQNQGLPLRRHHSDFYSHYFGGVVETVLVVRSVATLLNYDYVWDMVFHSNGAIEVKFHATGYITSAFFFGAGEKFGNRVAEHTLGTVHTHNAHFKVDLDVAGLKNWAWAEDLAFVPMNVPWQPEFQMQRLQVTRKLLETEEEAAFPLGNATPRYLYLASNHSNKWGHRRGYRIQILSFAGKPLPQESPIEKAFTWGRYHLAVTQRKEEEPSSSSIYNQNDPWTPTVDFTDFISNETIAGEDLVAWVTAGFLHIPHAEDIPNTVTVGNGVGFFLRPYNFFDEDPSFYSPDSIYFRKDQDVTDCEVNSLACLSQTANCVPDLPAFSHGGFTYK
human VAP-1 enzyme (SSAO), sequence (Q16853 whole entry): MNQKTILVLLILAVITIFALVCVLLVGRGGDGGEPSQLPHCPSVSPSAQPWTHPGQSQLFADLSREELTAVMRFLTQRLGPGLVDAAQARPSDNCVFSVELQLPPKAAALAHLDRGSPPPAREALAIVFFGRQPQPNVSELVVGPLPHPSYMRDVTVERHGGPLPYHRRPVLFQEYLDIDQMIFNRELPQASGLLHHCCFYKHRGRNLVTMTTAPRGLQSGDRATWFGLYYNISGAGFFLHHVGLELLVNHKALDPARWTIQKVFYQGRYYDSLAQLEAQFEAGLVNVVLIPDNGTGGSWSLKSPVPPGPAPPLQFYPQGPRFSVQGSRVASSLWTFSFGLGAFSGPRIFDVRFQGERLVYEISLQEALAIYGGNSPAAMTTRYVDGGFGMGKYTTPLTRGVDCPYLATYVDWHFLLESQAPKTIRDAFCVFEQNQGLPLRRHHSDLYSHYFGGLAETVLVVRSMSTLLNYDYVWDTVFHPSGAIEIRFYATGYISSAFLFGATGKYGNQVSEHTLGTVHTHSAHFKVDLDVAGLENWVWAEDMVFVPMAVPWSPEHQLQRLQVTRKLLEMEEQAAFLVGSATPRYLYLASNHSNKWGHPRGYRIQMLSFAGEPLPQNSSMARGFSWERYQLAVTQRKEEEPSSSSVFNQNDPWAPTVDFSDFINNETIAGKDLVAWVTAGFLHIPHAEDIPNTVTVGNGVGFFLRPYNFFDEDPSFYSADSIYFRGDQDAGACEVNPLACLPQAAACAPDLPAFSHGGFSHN

In general, IC50 refers to the concentration needed to halve the response being measured. High values mean lower potency, low ones higher potency. Compound `CC(=O)N1CCC(COc2ncc(-c3cccc(COC(=O)NC(=N)N)c3F)cn2)CC1` [Example 11] registered an IC50 in test [1] of 5.2 nM. Besides, in test [2], the “urinary albumin excretion relative to that of the control group” value stood at 1.5 times and the “amount of urinary albumin excretion” value amounted to 103 mg/gCr. In addition, the IC50 on rat VAP-1 enzyme (SSAO) worked out at 2.2 nM. Moreover, in test [3], the “Inhibition Ratio (%) 1 h” value is given as 64%, the “Inhibition Ratio (%) 3 h” value amounted to 70%, the “Inhibition Ratio (%) 6 h” value is 63% and the “Inhibition Ratio (%) 24 h” value is 12%.

Regarding `Cn1cc(OC2CN(c3cccc(COC(=O)NC(=N)N)c3F)C2)ccc1=O` [Example 557], the IC50 in test [1] was found to be 11 nM. Besides, in test [2], the “urinary albumin excretion relative to that of the control group” value came out at 2.3 times and the “amount of urinary albumin excretion” value came to 105 mg/gCr. The compound also yielded an IC50 against rat VAP-1 enzyme (SSAO) of 1.6 nM. Moreover, in test [3], the “Inhibition Ratio (%) 1 h” value stood at 53%, the “Inhibition Ratio (%) 3 h” value is recorded as 71%, the “Inhibition Ratio (%) 6 h” value is given as 56% and the “Inhibition Ratio (%) 24 h” value is 22%.

On to `COC1CN(c2ncc(N3CCN(c4cccc(COC(=O)NC(=N)N)c4F)CC3)cn2)C1` [Example 316, 2-fluoro-3-{4-[2-(3-methoxyazetidin-1-yl)pyrimidin-5-yl]piperazin-1-yl}benzyl carbamimidoylcarbamate trihydrochloride], for which half-maximal inhibition in test [1] (IC50) was put at 11 nM. For the same compound, the IC50 against rat VAP-1 enzyme (SSAO) is 0.9 nM. In addition, in test [3], the “Inhibition Ratio (%) 1 h” value turned out to be 91%, the “Inhibition Ratio (%) 3 h” value turned out to be 99% and the “Inhibition Ratio (%) 6 h” value is 98%. In test [3] (12 h after administration), the “Inhibition Ratio (%) 12 h” value was found to be 91%.
